Measurements published in ChEMBL document CHEMBL5291721, “A preclinical secondary pharmacology resource illuminates target-adverse drug reaction associations of marketed drugs” (Nat Commun, 2023).
“And” between values parts separate entries of the source, which are not always exact repeats. Equal entries are not always repeated.

Tests used:
[1] = target: T1, Adenosine receptor A1 (Homo sapiens, UniProt P30542)
T1 sequence (P30542 whole entry): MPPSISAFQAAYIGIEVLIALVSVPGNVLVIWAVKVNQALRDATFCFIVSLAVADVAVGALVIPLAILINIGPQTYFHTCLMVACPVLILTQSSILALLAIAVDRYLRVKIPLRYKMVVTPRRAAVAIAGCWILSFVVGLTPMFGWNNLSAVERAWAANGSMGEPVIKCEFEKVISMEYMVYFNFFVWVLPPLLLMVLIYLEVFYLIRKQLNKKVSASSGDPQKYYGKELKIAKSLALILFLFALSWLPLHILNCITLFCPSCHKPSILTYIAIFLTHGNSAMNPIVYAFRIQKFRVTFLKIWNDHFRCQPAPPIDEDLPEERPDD

[2] = target: 5-hydroxytryptamine receptor 2A (Homo sapiens, UniProt P28223); assay type: functional, cell-based
[3] = target: Melanocortin receptor 3 (Homo sapiens, UniProt P41968)
[4] = target: Mu-type opioid receptor (Homo sapiens, UniProt P35372)
[5] = target: T2, Alpha-2A adrenergic receptor (Homo sapiens, UniProt P08913); assay type: functional, cell-based
T2 sequence (P08913 whole entry): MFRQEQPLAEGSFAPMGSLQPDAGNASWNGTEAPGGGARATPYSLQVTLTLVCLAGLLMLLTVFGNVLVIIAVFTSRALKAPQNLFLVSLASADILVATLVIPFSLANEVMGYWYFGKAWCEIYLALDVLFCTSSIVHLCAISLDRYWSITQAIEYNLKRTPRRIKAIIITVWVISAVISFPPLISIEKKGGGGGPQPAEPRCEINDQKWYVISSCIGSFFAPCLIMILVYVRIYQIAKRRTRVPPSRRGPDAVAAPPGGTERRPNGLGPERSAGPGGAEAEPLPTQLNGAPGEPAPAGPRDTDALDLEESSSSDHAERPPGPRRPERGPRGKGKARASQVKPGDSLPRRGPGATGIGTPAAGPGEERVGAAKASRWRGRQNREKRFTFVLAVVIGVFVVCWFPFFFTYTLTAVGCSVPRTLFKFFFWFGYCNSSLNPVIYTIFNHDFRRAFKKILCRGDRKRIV

[6] = target: T3, 5-hydroxytryptamine receptor 2C (Homo sapiens, UniProt P28335)
T3 sequence (P28335 whole entry): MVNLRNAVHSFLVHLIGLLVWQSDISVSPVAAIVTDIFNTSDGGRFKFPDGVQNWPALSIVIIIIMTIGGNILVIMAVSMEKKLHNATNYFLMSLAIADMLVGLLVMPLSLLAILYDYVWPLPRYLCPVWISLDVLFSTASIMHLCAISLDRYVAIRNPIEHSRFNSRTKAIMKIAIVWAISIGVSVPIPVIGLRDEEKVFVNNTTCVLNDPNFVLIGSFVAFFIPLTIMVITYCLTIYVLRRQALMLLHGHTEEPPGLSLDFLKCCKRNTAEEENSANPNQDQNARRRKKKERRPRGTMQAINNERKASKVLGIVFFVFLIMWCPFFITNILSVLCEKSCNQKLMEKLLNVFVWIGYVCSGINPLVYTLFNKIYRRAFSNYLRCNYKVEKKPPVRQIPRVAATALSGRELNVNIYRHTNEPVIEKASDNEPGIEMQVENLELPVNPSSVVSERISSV

[7] = target: T4, Adenosine receptor A3 (Homo sapiens, UniProt P0DMS8)
T4 sequence (P0DMS8 whole entry): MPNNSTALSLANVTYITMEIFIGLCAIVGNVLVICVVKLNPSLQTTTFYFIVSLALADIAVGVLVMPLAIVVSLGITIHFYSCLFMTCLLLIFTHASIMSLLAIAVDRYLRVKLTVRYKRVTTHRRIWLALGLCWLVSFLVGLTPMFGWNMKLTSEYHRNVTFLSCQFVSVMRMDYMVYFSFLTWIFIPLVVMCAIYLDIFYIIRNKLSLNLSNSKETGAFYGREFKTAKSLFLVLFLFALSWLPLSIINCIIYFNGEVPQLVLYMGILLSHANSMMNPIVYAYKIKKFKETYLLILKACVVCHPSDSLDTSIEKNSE

[8] = target: T5, 5-hydroxytryptamine receptor 3A (Homo sapiens, UniProt P46098); assay type: functional
T5 sequence (P46098 whole entry): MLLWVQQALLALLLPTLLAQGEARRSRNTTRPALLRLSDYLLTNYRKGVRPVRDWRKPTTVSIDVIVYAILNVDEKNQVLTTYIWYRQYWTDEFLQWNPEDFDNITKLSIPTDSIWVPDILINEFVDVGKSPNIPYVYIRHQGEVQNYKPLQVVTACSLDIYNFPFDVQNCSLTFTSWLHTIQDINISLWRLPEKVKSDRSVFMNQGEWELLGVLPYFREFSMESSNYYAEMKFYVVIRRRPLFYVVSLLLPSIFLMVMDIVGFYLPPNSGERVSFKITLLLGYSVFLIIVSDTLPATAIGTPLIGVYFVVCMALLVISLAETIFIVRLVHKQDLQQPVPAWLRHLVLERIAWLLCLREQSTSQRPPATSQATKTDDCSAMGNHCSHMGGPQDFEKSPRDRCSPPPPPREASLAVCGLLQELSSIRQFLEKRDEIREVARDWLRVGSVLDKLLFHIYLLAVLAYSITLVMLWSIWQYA

[9] = target: T6, 5-hydroxytryptamine receptor 1A (Homo sapiens, UniProt P08908); assay type: functional, cell-based
T6 sequence (P08908 whole entry): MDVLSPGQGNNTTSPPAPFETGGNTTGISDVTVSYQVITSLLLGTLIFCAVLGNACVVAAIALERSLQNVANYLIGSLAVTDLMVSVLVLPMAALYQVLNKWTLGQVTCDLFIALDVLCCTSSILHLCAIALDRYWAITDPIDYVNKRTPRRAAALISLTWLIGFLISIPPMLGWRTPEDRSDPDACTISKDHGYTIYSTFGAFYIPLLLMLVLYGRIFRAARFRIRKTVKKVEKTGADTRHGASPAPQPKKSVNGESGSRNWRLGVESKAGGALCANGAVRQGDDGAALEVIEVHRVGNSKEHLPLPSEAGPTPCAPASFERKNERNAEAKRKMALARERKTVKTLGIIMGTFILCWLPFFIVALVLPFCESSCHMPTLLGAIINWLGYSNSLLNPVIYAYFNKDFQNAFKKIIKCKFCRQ
Note: assay procedure not described here.

Sequence of Melanocortin receptor 3 (P41968 whole entry): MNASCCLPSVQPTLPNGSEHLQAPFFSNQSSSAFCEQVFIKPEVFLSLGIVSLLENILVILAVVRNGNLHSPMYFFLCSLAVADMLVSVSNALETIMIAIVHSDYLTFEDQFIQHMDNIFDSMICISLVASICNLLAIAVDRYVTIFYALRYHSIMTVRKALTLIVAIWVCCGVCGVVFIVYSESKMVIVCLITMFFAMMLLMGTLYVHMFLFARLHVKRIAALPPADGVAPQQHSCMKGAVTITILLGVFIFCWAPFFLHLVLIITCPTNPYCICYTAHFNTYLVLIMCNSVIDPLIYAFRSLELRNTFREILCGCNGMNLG
Sequence of 5-hydroxytryptamine receptor 2A (P28223 whole entry): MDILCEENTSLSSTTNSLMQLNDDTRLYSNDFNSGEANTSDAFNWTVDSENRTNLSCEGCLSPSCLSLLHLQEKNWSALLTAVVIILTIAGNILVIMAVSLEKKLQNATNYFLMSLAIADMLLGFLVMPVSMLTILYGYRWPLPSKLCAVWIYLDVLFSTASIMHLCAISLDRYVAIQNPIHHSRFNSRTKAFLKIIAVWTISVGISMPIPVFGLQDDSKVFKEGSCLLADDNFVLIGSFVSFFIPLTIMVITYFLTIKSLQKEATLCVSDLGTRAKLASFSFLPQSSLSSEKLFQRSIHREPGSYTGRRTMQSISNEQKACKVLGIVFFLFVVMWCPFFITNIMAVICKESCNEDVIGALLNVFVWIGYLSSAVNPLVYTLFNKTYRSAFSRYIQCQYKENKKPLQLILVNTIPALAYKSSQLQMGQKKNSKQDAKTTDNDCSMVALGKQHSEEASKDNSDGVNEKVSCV
Sequence of Mu-type opioid receptor (P35372 whole entry): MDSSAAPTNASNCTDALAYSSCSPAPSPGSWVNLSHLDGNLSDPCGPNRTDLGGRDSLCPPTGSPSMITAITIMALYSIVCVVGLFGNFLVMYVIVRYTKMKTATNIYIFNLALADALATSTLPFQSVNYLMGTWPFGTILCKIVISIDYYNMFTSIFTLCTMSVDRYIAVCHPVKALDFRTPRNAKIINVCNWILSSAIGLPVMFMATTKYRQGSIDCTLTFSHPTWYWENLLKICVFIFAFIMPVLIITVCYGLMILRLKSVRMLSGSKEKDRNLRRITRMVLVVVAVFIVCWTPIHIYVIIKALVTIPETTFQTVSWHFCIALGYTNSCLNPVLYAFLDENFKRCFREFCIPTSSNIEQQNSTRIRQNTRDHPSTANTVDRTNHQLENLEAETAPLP

Row | Structure (SMILES) | AC50 [1] [µM] | AC50 [2] | AC50 [3] [µM] | AC50 [4] [µM] | AC50 [5] [µM] | AC50 [6] [µM] | AC50 [7] | AC50 [8] [µM] | AC50 [9] [µM]
1 | CNCc1ccc(-c2[nH]c3cc(F)cc4c3c2CCNC4=O)cc1 [RUCAPARIB] | > 30 | > 10 µM | > 30 | > 30 | – | – | – | – | –
2 | CC1OC2(CS1)CN1CCC2CC1 (stereo not drawn) [CEVIMELINE] | > 10 | > 10 µM | > 10 | > 30 | > 10 | > 30 | > 10 µM | > 30 | > 10
3 | C[C@H](Cc1ccc(O)c(O)c1)[C@@H](C)Cc1ccc(O)c(O)c1 [MASOPROCOL] | > 30 | 13 µM and > 30 µM and 21 µM | > 30 | > 30 | > 10 | > 30 | 5.4 µM and 4.7 µM and 4.1 µM | > 30 | –
4 | CCC1(c2ccccc2)CCC(=O)NC1=O (stereo not drawn) [GLUTETHIMIDE] | > 10 | > 30 µM | > 10 | > 30 | > 10 | > 30 | > 10 µM | > 30 | > 30
5 | CC(C)(C)C(=O)OCC(=O)[C@H]1CC[C@H]2[C@@H]3CCC4=CC(=O)CC[C@]4(C)[C@H]3CC[C@]12C [DESOXYCORTICOSTERONE PIVALATE] | > 10 | > 10 µM | > 10 | > 30 | > 10 | > 30 | > 10 µM | > 30 | –
6 | CCC(=O)O[C@H]1CC[C@H]2[C@@H]3CCC4=CC(=O)CC[C@]4(C)[C@H]3CC[C@]12C [TESTOSTERONE PROPIONATE] | > 10 | > 30 µM | > 10 | > 30 | > 10 | > 30 | > 10 µM | > 30 | > 10
7 | CCOC(=O)c1cncn1[C@H](C)c1ccccc1 [ETOMIDATE] | > 10 | > 10 µM | > 10 | > 30 | > 10 | > 30 | > 10 µM | – | > 10
8 | Nc1ncn([C@H]2C[C@H](O)[C@@H](CO)O2)c(=O)n1 [DECITABINE] | > 30 | > 30 µM | > 30 | – | > 30 | > 30 | > 30 µM | > 30 | > 30
